# Counter-ions that a name gives are not always drawn.
# Legend:
# Format in all cases: cell-based
# [1] = system: N9 mouse microglia cell line; assay: TNF-α and IFNγ-induced production of multiple cytokines in microglia cells (flow cytometry, LEGENDplex); conditions: 100 nM, 6 hours pre-incubation, then 24 hours TNF-α 10 nM plus IFNγ 1 nM
# Protocol: (§1) The “N9” murine microglia cell line was cultured in EMEM (Eagle Minimum Essential Media) supplemented with 10% (v/v) FBS, […] L-glutamine, 1% (v/v) NEAA and maintained at 37° C., 5% (v/v) CO2. Experiments were performed on 24-well plates. Compounds were incubated in cells for the indicated amount of time (2, 4 or 6 hours) before the addition of the indicated inflammatory stimuli (Lipopolysaccharide (LPS) or TNFα:IFNγ).
# (§2) The experiment was conducted in vitro using N9 mouse microglia cell line. Phenolic metabolites were pre-incubated for 6 hours in the regular cell media at the indicated concentration. Afterwards cells were washed and incubated with TNF-α 10 nM plus IFNγ 1 nM for 24 hours. At the end of this period cell media was collected and the presence of various cytokines analyzed using flow cytometry (LEGENDplex™ Mouse Macrophage/Microglia Panel), thus showing the results as substantially depicted in FIG. 3.
# [2] = system: N9 mouse microglia cell line; assay: LPS-induced production of multiple cytokines in microglia cells (flow cytometry, LEGENDplex); conditions: 100 nM, 6 hours pre-incubation, then 24 hours lipopolysaccharides
# Protocol: as §1
# as §2, with “the” for “the regular”, “lipopolysaccharides” for “TNF-α 10 nM plus IFNγ 1 nM”, “2.” for “3.”
# [3] = system: N9 mouse microglia cell line; assay: LPS-induced TNF-α release in microglia cells (ELISA); conditions: for release of TNF-α (FIG. 1): 100 nM, 2, 4 and 6 hours pre-incubation; for activity at 5 µM: Mus musculus, Microglia, read-out: TNFα release (Fold-change relative to LPS); for attenuation of TNFα release at lower concentrations: at and below 100 nanomolar (data not shown)
# Protocol: as §1
# The experiment was conducted in vitro using N9 mouse microglia cell line. Phenolic metabolites or derived-thereof were pre-incubated for 6 hours at 5 micromolar with microglia cells in cell media. Afterwards cells were washed and incubated with lipopolysaccharides for 24 hours. At the end of this period cell media was collected and the presence of TNF-α analyzed using ELISA, thus showing the results as shown in Table 1.
# In an embodiment compounds resorcinol-sulfate and phloroglucinol-sulfate were pre-incubated at 100 nanomolar for 2, 4, 6 hours with the cells in the cell media. Afterwards cells were washed and incubated with lipopolysaccharides for 24 hours. At the end of this period cell media was collected and the presence of TNF-α analyzed using ELISA, thus showing the results as substantially depicted in FIG. 1.
# [4] = system: LUHMES cells (human dopaminergic cell line); assay: Cell viability and ATP levels after MPP+ oxidative insult; conditions: 24 hours pre-treatment at 5 μM, then 24 hours MPP+; for ATP levels (FIG. 5B): luciferase; for cell viability (metabolic capacity) (FIG. 5A): resazurin
# Protocol: The LUHMES cells (human dopaminergic cell line) were cultured in advanced DMEM-F12 ([…]) at 37° C. with 5% (v/v) CO2. Experiments were performed in 24 well plates. Compounds were incubated for 24 hours before addition of Parkinson inducing toxin MPP+ was added to cells.
# The experiment was conducted in vitro using “LUHMES”, human dopaminergic cell line at 37° C. with 5% CO2. Phenolic metabolites were incubated for 24 hours at 5 μM. After this period cells were washed and incubated (or not) with MPP+ ([…]) for 24 hours in order to produce the oxidative insult, that mimics the dopaminergic lesions found in several neurodegenerative diseases, namely in Parkinson's Disease brain. Afterwards cell medium was replaced with new medium including the cell metabolic dyes: resazurin for 2 hours or luciferase for 30 min. Colour development was measured by fluorescence and luminescence respectively, in a Synergy (Biotek) plate reader, thus showing the results as substantially depicted in FIG. 5.
# [5] = then 24 hours lipopolysaccharides
# [6] = 5 micromolar, 6 hours pre-incubation, then 24 hours lipopolysaccharides, ELISA
smiles,measurement,setting,value
"O=S(=O)(O)Oc1cc(O)cc(O)c1 [Phloroglucinol-sulfate, 3,5-dihydroxyphenyl hydrogen sulfate]","multiple cytokines (TNF-α, CCL22, IL-10, CCL17, IL-1β, CXCL1, G-CSF, IL-6, IL-18, TGFβ1, IL23, IL-12p40, IL-12p70) (FIG. 3)",[1],reduction in multiple cytokines
same,"multiple cytokines (G-CSF, TNF-α, IL-6, IL-10, IL-1β, CCL17, IL-12p40, TGFβ1, CCL22, IL18, CXCL1) (FIG. 2)",[2],reduction in multiple cytokines
same,release of TNF-α (FIG. 1),[3]; [5],reduction in release of TNF-α
same,activity at 5 µM,[3]; [6],57 ± 6%
same,attenuation of TNFα release at lower concentrations,[3],capability to attenuate TNFα release at lower concentrations
same,ATP levels (FIG. 5B),[4],protective effects
same,cell viability (metabolic capacity) (FIG. 5A),[4],protective effects
COc1c(O)cc(C(=O)O)cc1OS(=O)(=O)O [4-O-methyl gallic acid-3-sulfate],TNFα release (Fold-change relative to LPS),[3]; [6],0.50 ± 0.07 Fold-change relative to LPS
COc1cc(O)cc(OS(=O)(=O)O)c1 [3-hydroxy-5-methoxyphenyl hydrogen sulfate],activity at 5 µM,[3]; [6],57 ± 6%
"O=S(=O)(O)Oc1ccc(CO)c(O)c1O [2,3-dihydroxy-4-(hydroxymethyl)phenyl hydrogen sulfate]",activity at 5 µM,[3]; [6],48 ± 7%
"Cc1ccc(OS(=O)(=O)O)c(O)c1O [2,3-dihydroxy-4-methylphenyl hydrogen sulfate]",activity at 5 µM,[3]; [6],45 ± 4%
COc1cccc(OS(=O)(=O)O)c1O [2-hydroxy-3-methoxyphenyl hydrogen sulfate],activity at 5 µM,[3]; [6],65 ± 11%
COc1cc(C(=O)O)ccc1OS(=O)(=O)O [3-methoxy-4-(sulfooxy)benzoic acid],activity at 5 µM,[3]; [6],56 ± 16%
COc1c(O)cccc1OS(=O)(=O)O [3-hydroxy-2-methoxyphenyl hydrogen sulfate],activity at 5 µM,[3]; [6],65 ± 8%
"O=S(=O)(O)Oc1cccc(O)c1 [Resorcinol-sulfate, 3-hydroxyphenyl hydrogen sulfate]","multiple cytokines (TNF-α, CCL22, IL-10, CCL17, IL-1β, CXCL1, G-CSF, IL-6, IL-18, TGFβ1, IL23, IL-12p40, IL-12p70) (FIG. 3)",[1],reduction in multiple cytokines
same,"multiple cytokines (G-CSF, TNF-α, IL-6, IL-10, IL-1β, CCL17, IL-12p40, TGFβ1, CCL22, IL18, CXCL1) (FIG. 2)",[2],reduction in multiple cytokines
same,release of TNF-α (FIG. 1),[3]; [5],reduction in release of TNF-α
same,activity at 5 µM,[3]; [6],58 ± 13%
same,attenuation of TNFα release at lower concentrations,[3],capability to attenuate TNFα release at lower concentrations
same,ATP levels (FIG. 5B),[4],protective effects
same,cell viability (metabolic capacity) (FIG. 5A),[4],protective effects

# — US20250162986A1, “Compounds and compositions for neurodegenerative diseases” (Universidade Nova de Lisboa, priority 2022, published 2025)
